Laboratory results: patent publication US20260108512A1, “COMPOUNDS, COMPOSITIONS AND METHODS OF TREATING DISORDERS” (HOTSPOT THERAPEUTICS, INC., priority 2022, published 2026)

These molecules were tested against T1, Cbl-b (Homo sapiens, UniProt Q13191) (assay: Cbl-b LCK Ub TR-FRET assay). Conditions: average IC50, graded A-C; read-out: CBL-B_TR-FRET_AVG_IC50.
T1 construct: biotin (biotinylated protein)
Type: biochemical
Protocol: Compounds are 3-fold serially diluted in DMSO in a 384-well polypropylene plate (e.g., #P-05525-BC; Labcyte) to generate a source plate with 10 concentrations of each compound, top concentration=2 mM. 80 nL of DMSO or compounds are transferred to each well of a black 384-well ProxiPlate (e.g., #6008260; PerkinElmer) using a Labcyte Echo, 1×assay buffer (50 mM HEPES pH7.0, 100 mM NaCl, 0.01% BSA, 0.01% Triton-X100, 1 mM DTT), 2×enzyme solution (16 nM Biotin-Cbl-b or 12 nM Biotin-c-Cbl in 1×assay buffer), 2×kinase mixture (120 nM His-LCK, 1 mM ATP, 10 mM MgCl2 in assay buffer) and 2.33×detection mixture (4.66×solution 1:163 nM Anti-HA-D2 antibody (e.g., #610HADAB:PerkinElmer), 27.96 nM Streptavidin-EU (e.g., #AD0062; PerkinElmer), 1.398 mM EDTA in 1×assay buffer+4.66×solution 2:2.796 pM UBE2D2/Methylated-HA-Ubiquitin thioester adduct (e.g., BostonBiochem) in 1×assay buffer) are prepared. 4 μL of 2×enzyme solution are added to each well containing compound, briefly centrifuged to mix, and incubated for 60 min at room temperature. 4 μL of 2×kinase mixture is added, briefly centrifuged to mix, and incubated for 90 min. at room temperature. 6 μL of detection mixture is added to all wells and briefly centrifuged before incubating for 20 min at room temperature. Plates am read for TR-FRET using an Envision at excitation 340 nm, emission at 615 and 665 nm, 4 flashes per well. IC50 is generated using no LCK as the low control and DMSO as the high control.

T1 sequence (Q13191 40-426): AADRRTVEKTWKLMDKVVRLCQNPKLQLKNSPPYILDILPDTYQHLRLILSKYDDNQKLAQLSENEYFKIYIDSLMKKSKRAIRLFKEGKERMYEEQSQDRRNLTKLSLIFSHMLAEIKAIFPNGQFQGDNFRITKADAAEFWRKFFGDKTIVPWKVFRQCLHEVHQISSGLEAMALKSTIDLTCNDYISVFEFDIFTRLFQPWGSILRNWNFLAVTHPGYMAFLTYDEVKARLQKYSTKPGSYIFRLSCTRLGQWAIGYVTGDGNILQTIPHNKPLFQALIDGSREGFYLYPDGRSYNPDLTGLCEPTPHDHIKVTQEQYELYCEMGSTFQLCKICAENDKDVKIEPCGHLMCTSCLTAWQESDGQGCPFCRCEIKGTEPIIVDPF

Structure (SMILES)	IC50 [nM]
Cn1cnnc1[C@@H](F)C1(c2cccc(-n3cc4c(C(F)(F)F)cc(CN)cn4c3=O)c2)COC1 (single isomer, unassigned) [Compound 5]	101 to 500
Cn1cnnc1[C@@H](F)[C@](C)(F)c1cccc(-n2cc3c(C(F)(F)F)cc(CN4CCC5(CC5)C4)cn3c2=O)c1 (single isomer, unassigned) [Compound 6]	< 100
CC(C)[C@H]1CN(C)CCN1Cc1cc(C(F)(F)F)c2cn(-c3cccc(C4([C@@H](F)c5nncn5C)CC(F)(F)C4)c3)c(=O)n2c1 (single isomer, unassigned) [Compound 12]	< 100
COC[C@H]1CCCN1Cc1cc(C(F)(F)F)c2cn(-c3cccc(C4([C@@H](F)c5nncn5C)COC4)c3)c(=O)n2c1 (single isomer, unassigned) [Compound 11]	101 to 500
Cn1cnnc1[C@@H](F)C1(c2cccc(-n3cc4c(C(F)(F)F)cc(CNC5(C)CCC5)cn4c3=O)c2)COC1 (single isomer, unassigned) [Compound 3]	501 to 10000
Cn1cnnc1[C@H](F)C1(c2cccc(-n3cc4c(C(F)(F)F)cc(CN)cn4c3=O)c2)COC1 [Compound 4]	101 to 500
Cn1cnnc1[C@H](F)C1(c2cccc(-n3cc4c(C(F)(F)F)cc(CNC5(C)CCC5)cn4c3=O)c2)COC1 (single isomer, unassigned) [Compound 2]	501 to 10000
COC[C@H]1CCCN1Cc1cc(C(F)(F)F)c2cn(-c3cccc(C4([C@H](F)c5nncn5C)COC4)c3)c(=O)n2c1 (single isomer, unassigned) [Compound 10]	501 to 10000
CC(C)[C@H]1CN(C)CCN1Cc1cc(C(F)(F)F)c2cn(-c3cccc(C4(Cc5nncn5C(F)F)COC4)c3)c(=O)n2c1 [Compound 1]	< 100
Cn1cnnc1[C@@H](F)[C@](C)(F)c1cccc(-n2cc3c(C(F)(F)F)cc(CN4CCC5(CC5)C4)cn3c2=O)c1 (single isomer, unassigned) [Compound 7]	101 to 500
Cn1cnnc1[C@@H](F)[C@@](C)(F)c1cccc(-n2cc3c(C(F)(F)F)cc(CN4CCC5(CC5)C4)cn3c2=O)c1 [Compound 8]	101 to 500
Cn1cnnc1[C@H](F)[C@@](C)(F)c1cccc(-n2cc3c(C(F)(F)F)cc(CN4CCC5(CC5)C4)cn3c2=O)c1 [Compound 9]	501 to 10000

The next lines start with the values.

IC50 [nM]	Structure (SMILES)
101 to 500	Cn1cnnc1[C@@H](F)C1(c2cccc(-n3cc4c(C(F)(F)F)cc(CN5CC6CC5C6)cn4c3=O)c2)COC1 (single isomer, unassigned) [Compound 17]
101 to 500	Cn1cnnc1[C@@H](F)C1(c2cccc(-n3cc4c(C(F)(F)F)cc(CN5CCC5)cn4c3=O)c2)COC1 (single isomer, unassigned) [Compound 19]
< 100	CC(C)[C@H]1CN(C)CCN1Cc1cc(C(F)(F)F)c2cn(-c3cccc(C4([C@H](F)c5nncn5C)COC4)c3)c(=O)n2c1 (single isomer, unassigned) [Compound 21]
< 100	CC(C)[C@H]1CN(C)CCN1Cc1cc(C(F)(F)F)c2cn(-c3cccc(C4([C@H](F)c5nncn5C)CC(F)(F)C4)c3)c(=O)n2c1 (single isomer, unassigned) [Compound 13]
< 100	Cn1cnnc1[C@H](F)C1(c2cccc(-n3cc4c(C(F)(F)F)cc(CN5CC6CC5C6)cn4c3=O)c2)COC1 (single isomer, unassigned) [Compound 16]
< 100	Cn1cnnc1[C@@H](F)C1(c2cccc(-n3cc4c(C(F)(F)F)cc(CN5CC(C)(CO)C5)cn4c3=O)c2)COC1 (single isomer, unassigned) [Compound 15]
101 to 500	Cn1cnnc1[C@H](F)C1(c2cccc(-n3cc4c(C(F)(F)F)cc(CN5CC(C)(CO)C5)cn4c3=O)c2)COC1 (single isomer, unassigned) [Compound 14]
< 100	Cn1cnnc1[C@H](F)C1(c2cccc(-n3cc4c(C(F)(F)F)cc(CN5CCC5)cn4c3=O)c2)COC1 (single isomer, unassigned) [Compound 18]
< 100	CC(C)[C@H]1CN(C)CCN1Cc1cc(C(F)(F)F)c2cn(-c3cccc(C4([C@@H](F)c5nncn5C)COC4)c3)c(=O)n2c1 (single isomer, unassigned) [Compound 20]
